What was measured:
SEM cells [1] = experiment: cell viability relative to DMSO control; higher = less cytotoxic; conditions: 48 h
How it was run: (§1)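 Leukemia cells (NOMO1 or SEM, 500 cells/well; P12-Ichikawa, 1000 cells/well) were seeded in 5 μl in 1536-well plates after at least four passages of adaptation to each medium. They received library compounds in DMSO by pin dosing, 11 threefold points from 47 μM to 0.79 nM. Luminescence with CellTiter-Glo One was read after 48 h at 37°C. Viability is stated per plate relative to DMSO wells, with cell-free wells as background.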

NOMO1 [2] = experiment: AUC of viability dose-response curve (% viability x log10 dose units); higher = less sensitive; conditions: 48 h
How it was run: (§2)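 Leukemia cells adapted to each medium (500 or 1000 cells/well, 1536-well plates) were exposed to library compounds in DMSO for 48 h at 37°C at 11 threefold doses, 47 μM to 0.79 nM. Luminescence by CellTiter-Glo One was normalised per plate to DMSO and cell-free wells, then fitted with a four-parameter log-logistic curve on log10 dose. Curves above full viability were scaled and quality-control failures removed before area under the curve was integrated by trapezoidal rule.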

P12-Ichikawa = experiment: as above; conditions: 48 h
How it was run: as §2

SEM cells [3] = experiment: as above; conditions: 48 h
How it was run: as §2

NOMO1 [4] = experiment: cell viability relative to DMSO control; higher = less cytotoxic; conditions: HPLM + 10% dialyzed FBS, 48 h
How it was run: as §1

CC[C@@H]1/C=C(\C)C[C@H](C)C[C@H](OC)[C@H]2O[C@@](O)(C(=O)C(=O)N3CCCC[C@H]3C(=O)O[C@H](/C(C)=C/[C@@H]3CC[C@H](Cl)[C@H](OC)C3)[C@H](C)[C@@H](O)CC1=O)[C@H](C)C[C@@H]2OC
SEM cells [1], HPLM + 10% dialyzed FBS
Conditions | cell viability [%]
0.000781 µM | 115
0.00234 µM | 128
0.00702 µM | 117
0.0211 µM | 135
0.0632 µM | 122
0.19 µM | 128
0.569 µM | 117
1.71 µM | 109
5.12 µM | 109
15.4 µM | 105
46.1 µM | 104

AUC of viability dose-response curve
Conditions | NOMO1 [2] | P12-Ichikawa | SEM cells [3]
HPLM + 10% dialyzed FBS | 457 | 467 | 451
RPMI 5 mM glucose + 10% FBS | 466 | 456 | 453
RPMI 5 mM glucose + 10% dialyzed FBS | 474 | 468 | 449

CCO[C@@H]1OC(=O)C[C@@H]1NC(=O)[C@@H]1CCCN1C(=O)[C@@H](NC(=O)c1ccc(N)c(Cl)c1)C(C)(C)C
cell viability [%], SEM cells [1]
Conditions | HPLM + 10% dialyzed FBS | RPMI 5 mM glucose + 10% dialyzed FBS
0.000781 µM | 106 | 103
0.00234 µM | 121 | 126
0.00702 µM | 124 | 125
0.0211 µM | 109 | 115
0.0632 µM | 145 | 140
0.19 µM | 138 | 158
0.569 µM | 119 | 146
1.71 µM | 150 | 156
5.12 µM | 151 | 126
15.4 µM | 142 | 146
46.1 µM | 111 | 125

AUC of viability dose-response curve
Conditions | NOMO1 [2] | P12-Ichikawa | SEM cells [3]
HPLM + 10% dialyzed FBS | 328 | 345 | 453
RPMI 5 mM glucose + 10% FBS | 305 | 356 | 477
RPMI 5 mM glucose + 10% dialyzed FBS | 318 | 374 | 446

COc1cc(OC)c(OC)cc1C=O
cell viability [%], SEM cells [1]
Conditions | HPLM + 10% dialyzed FBS | RPMI 5 mM glucose + 10% dialyzed FBS
0.000781 µM | 98 | 113
0.00234 µM | 111 | 96.5
0.00702 µM | 111 | 130
0.0211 µM | 109 | 144
0.0632 µM | 108 | 148
0.19 µM | 113 | 146
0.569 µM | 88.7 | 94
1.71 µM | 58.6 | 54
5.12 µM | 122 | 126
15.4 µM | 133 | 162
46.1 µM | 139 | 130

AUC of viability dose-response curve
Conditions | NOMO1 [2] | P12-Ichikawa | SEM cells [3]
HPLM + 10% dialyzed FBS | 467 | 455 | 439
RPMI 5 mM glucose + 10% FBS | 474 | 440 | 450
RPMI 5 mM glucose + 10% dialyzed FBS | 469 | 429 | 460

O=C(O)COCCN1CCN(C(c2ccccc2)c2ccc(Cl)cc2)CC1 (stereo not drawn)
cell viability [%], SEM cells [1]
Conditions | HPLM + 10% dialyzed FBS | RPMI 5 mM glucose + 10% FBS
0.000781 µM | 126 | 117
0.00234 µM | 125 | 118
0.00702 µM | 117 | 113
0.0211 µM | 130 | 108
0.0632 µM | 140 | 116
0.19 µM | 132 | 95.4
0.569 µM | 128 | 119
1.71 µM | 123 | 91
5.12 µM | 111 | 113
15.4 µM | 119 | 112
46.1 µM | 122 | 102

AUC of viability dose-response curve
Conditions | NOMO1 [2] | P12-Ichikawa | SEM cells [3]
HPLM + 10% dialyzed FBS | 463 | 461 | 465
RPMI 5 mM glucose + 10% FBS | 459 | 461 | 453
RPMI 5 mM glucose + 10% dialyzed FBS | 451 | 455 | 469

CCc1nc(-c2cccc(C)c2)c(-c2ccnc(NC(=O)c3ccccc3)c2)s1
AUC of viability dose-response curve
Conditions | NOMO1 [2] | P12-Ichikawa | SEM cells [3]
HPLM + 10% dialyzed FBS | 461 | 449 | 463
RPMI 5 mM glucose + 10% FBS | 454 | 456 | 452
RPMI 5 mM glucose + 10% dialyzed FBS | 443 | 450 | 449

[O-]C(=O)C1=C(C(=C(Cl)C(=C1Cl)Cl)Cl)C/2=C/3\C=C(I)/C(=O)/C(=C3OC4=C2C=C(I)C(=C4I)[O-])I
Conditions | AUC of viability dose-response curve | cell viability [%]
NOMO1 [2], HPLM + 10% dialyzed FBS | 474 | –
NOMO1 [2], RPMI 5 mM glucose + 10% FBS | 451 | –
NOMO1 [2], RPMI 5 mM glucose + 10% dialyzed FBS | 457 | –
NOMO1 [4], 0.000781 µM | – | 101
NOMO1 [4], 0.00234 µM | – | 136
NOMO1 [4], 0.00702 µM | – | 116
NOMO1 [4], 0.0211 µM | – | 122
NOMO1 [4], 0.0632 µM | – | 140
NOMO1 [4], 0.19 µM | – | 129
NOMO1 [4], 0.569 µM | – | 143
NOMO1 [4], 1.71 µM | – | 133
NOMO1 [4], 5.12 µM | – | 130
NOMO1 [4], 15.4 µM | – | 113
NOMO1 [4], 46.1 µM | – | 102
P12-Ichikawa, HPLM + 10% dialyzed FBS | 446 | –
P12-Ichikawa, RPMI 5 mM glucose + 10% FBS | 450 | –
P12-Ichikawa, RPMI 5 mM glucose + 10% dialyzed FBS | 445 | –
SEM cells [3], HPLM + 10% dialyzed FBS | 466 | –
SEM cells [3], RPMI 5 mM glucose + 10% FBS | 464 | –
SEM cells [3], RPMI 5 mM glucose + 10% dialyzed FBS | 462 | –

cell viability [%], SEM cells [1]
Conditions | HPLM + 10% dialyzed FBS | RPMI 5 mM glucose + 10% FBS
0.000781 µM | 111 | 108
0.00234 µM | 106 | 121
0.00702 µM | 122 | 130
0.0211 µM | 106 | 133
0.0632 µM | 118 | 134
0.19 µM | 111 | 113
0.569 µM | 120 | 115
1.71 µM | 116 | 130
5.12 µM | 106 | 114
15.4 µM | 109 | 109
46.1 µM | 73 | 83.2

Cc1cccc(CN2CCN(C(c3ccccc3)c3ccc(Cl)cc3)CC2)c1 (stereo not drawn)
SEM cells [1], RPMI 5 mM glucose + 10% dialyzed FBS
Conditions | cell viability [%]
0.000781 µM | 144
0.00234 µM | 121
0.00702 µM | 122
0.0211 µM | 130
0.0632 µM | 45.3
0.19 µM | 104
0.569 µM | 135
1.71 µM | 126
5.12 µM | 82.2
15.4 µM | 121
46.1 µM | 113

AUC of viability dose-response curve
Conditions | NOMO1 [2] | P12-Ichikawa | SEM cells [3]
HPLM + 10% dialyzed FBS | 464 | 460 | 436
RPMI 5 mM glucose + 10% FBS | 451 | 429 | 444
RPMI 5 mM glucose + 10% dialyzed FBS | 460 | 456 | 443

CC(C)n1cnc2c(NCCCCCCNC(=O)OC(C)(C)C)nc(NCCO)nc21
AUC of viability dose-response curve
Conditions | NOMO1 [2] | P12-Ichikawa | SEM cells [3]
HPLM + 10% dialyzed FBS | 443 | 464 | 453
RPMI 5 mM glucose + 10% FBS | 455 | 449 | 462
RPMI 5 mM glucose + 10% dialyzed FBS | 469 | 449 | 454
